Reference: ChEMBL document CHEMBL1130525, “Robustaflavone, a naturally occurring biflavanoid, is a potent non-nucleoside inhibitor of hepatitis B virus replication in vitro” (Bioorg Med Chem Lett, 1997)

What was measured:
HepG2 [1] = test: Relative level of HBV viral mRNA (3.6 kb mRNA) following treatment of human hepatoblastoma cell line (2.2.15 cells) with the compound; format: functional
[2] = In vitro selectivity index measured for IC50 to that of EC90 was determined in human hepatoblastoma cell line (2.2.15 cells); format: functional
HepG2 [3] = test: Effective concentration necessary to decrease extracellular Hepatitis B virus DNA levels by 90% in human hepatoblastoma cell line (2.2.15 cells) in vitro; format: functional
HepG2 [4] = test: Relative level of HBV viral antigen (HBsAg) following treatment of human hepatoblastoma cell line (2.2.15 cells) with the compound; format: functional
HepG2 [5] = test: Relative level of HBV viral antigen (HBeAg) following treatment of human hepatoblastoma cell line (2.2.15 cells) with the compound; format: functional
HepG2 [6] = test: Relative level of HBV viral antigen (HBcAg) following treatment of human hepatoblastoma cell line (2.2.15 cells) with the compound; format: functional
HepG2 [7] = test: Cytotoxicity towards human hepatoblastoma cell line (2.2.15 cells) measured by inhibition of neutral red dye uptake in vitro; format: functional, cell-based
HepG2 [8] = test: Relative level of HBV viral mRNA (2.1 kb mRNA) following treatment of human hepatoblastoma cell line (2.2.15 cells) with the compound; format: functional
HepG2 [9] = test: Effective concentration necessary to decrease extracellular Hepatitis B virus DNA levels by 50% in human hepatoblastoma cell line (2.2.15 cells) in vitro; format: functional, cell-based
HepG2 [10] = test: Relative level of HBV viral DNA (Extracellular) following treatment of human hepatoblastoma cell line (2.2.15 cells) with the compound; format: functional
HepG2 [11] = test: Relative level of HBV viral DNA (Intracellular) following treatment of human hepatoblastoma cell line (2.2.15 cells) with the compound; format: functional

Question: What does the source list for `O=c1cc(-c2ccc(O)c(-c3c(O)cc4oc(-c5ccc(O)cc5)cc(=O)c4c3O)c2)oc2cc(O)cc(O)c12` [ROBUSTAFLAVONE]?
Answer: Relative level (HepG2 [1]): 93; Ratio [2]: 153; EC90 (HepG2 [3]): 2200 nM; Relative level (HepG2 [4]): 97; Relative level (HepG2 [5]): 86; Relative level (HepG2 [6]): 138; IC50 (HepG2 [7]): 337 µM; Relative level (HepG2 [8]): 106; EC50 (HepG2 [9]): 250 nM; Relative level (HepG2 [10]): 1; Relative level (HepG2 [11]): 5

Question: For `Nc1ccn([C@H]2CC[C@@H](CO)O2)c(=O)n1` [ZALCITABINE], which Relative level (HepG2 [1]) is on record?
Answer: 94

Question: What about the Ratio [2] of the same compound?
Answer: 30

Question: And the EC90 (HepG2 [3])?
Answer: 8400 nM

Question: And the Relative level (HepG2 [4])?
Answer: 90

Question: What about the Relative level (HepG2 [5]) of the same compound?
Answer: 88

Question: And the Relative level (HepG2 [6])?
Answer: 91

Question: And the IC50 (HepG2 [7])?
Answer: 252 µM

Question: And the Relative level (HepG2 [8])?
Answer: 87

Question: And the EC50 (HepG2 [9])?
Answer: 1400 nM

Question: What about the Relative level (HepG2 [10]) of the same compound?
Answer: 1

Question: What about the Relative level (HepG2 [11]) of the same compound?
Answer: 6

Question: With `Nc1ccn([C@@H]2CS[C@H](CO)O2)c(=O)n1` [LAMIVUDINE] as the compound, how does the Ratio [2] read?
Answer: 11200

Question: What about the EC90 (HepG2 [3]) of the same compound?
Answer: 160 nM

Question: What about the IC50 (HepG2 [7]) of the same compound?
Answer: 1790 µM

Question: And the EC50 (HepG2 [9])?
Answer: 38 nM

Question: With `Nc1nc(O)c2ncn(CCC(CO)CO)c2n1` [PENCICLOVIR] as the compound, how does the Ratio [2] read?
Answer: 471

Question: And the EC90 (HepG2 [3])?
Answer: 920 nM

Question: And the IC50 (HepG2 [7])?
Answer: 433 µM

Question: And the EC50 (HepG2 [9])?
Answer: 190 nM
